Measurements: patent US20250332173A1, “COMPOUNDS AND METHODS FOR MODULATING NUCLEIC ACID SPLICING” (REMIX THERAPEUTICS INC., priority 2021, published 2025)
Where two headings read alike, the source gives them in different places.

Legend:
[1] = system: K562 (human chronic myelogenous leukemia) cells; assay: Cell Titer Glo 2.0 cell viability assay; assay type: cell-based; details: Homo sapiens, K562, 72 h, K562 cells, 72 hours, Cell Titer Glo 2.0; read-out: K562 GI50
HTT mRNA = assay: RT-qPCR splicing assay, HTT canonical junction (CJ) and alternative junction (AJ) mRNA; assay type: cell-based, human; details: Homo sapiens; for AC50: increase in HTT alternative junction (AJ) mRNA, read-out: HTT AJ AC50
Outline: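 Read-out is one-step RT-qPCR on cell lysates detecting the exon-exon junction of each isoform, normalized to a housekeeping gene (PPIA in A673, GAPDH or GUSB in K562).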

HTT = assay: HiBiT protein abundance assay, HTT HiBiT K562 cell line; assay type: cell-based, human; details: HiBiT K562 cell line, 24 hours, top dose 10 μM; read-out: Effect on protein abundance, HTT (IC50 category)
Outline: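 Tagged-protein abundance measured by split-NanoBiT luminescence after lysis, following 24 h compound exposure (37° C; 10 μM top, 3-fold, 10 points; DMSO ≤0.25%) of HiBiT knock-in K562 cells. Percent response vs DMSO and unmodified-cell controls; 4-parameter logistic interpolation at 50% gave IC50.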

[2] = decrease in HTT canonical junction (CJ) mRNA, RT-qPCR, read-out: HTT CJ IC50
[3] = Table 5 panel, canonical junction qPCR, compound concentration having 50% response in CJ decrease, read-out: HTT IC50 (decrease in CJ mRNA levels)

Row | SMILES | GI50 [1] [nM] | IC50 (HTT mRNA; [2]) [nM] | AC50 (HTT mRNA; RT-qPCR) [nM] | IC50 (HTT mRNA; [3]) [nM] | IC50 (HTT) [nM]
1 | Cc1cn2cc(-c3cc(F)c4c(=O)n(C5CCOC5)cnc4c3)cc(C#N)c2n1 (stereo not shown) [Compound 366, 6-[5-fluoro-4-oxo-3-(oxolan-3-yl)quinazolin-7-yl]-2-methylimidazo[1,2-a]pyridine-8-carbonitrile] | 1000 to 10000 | 1000 to 10000 | 1000 to 10000 | 1000 to 10000 | 1000 to 10000
2 | Cc1cn2cc(-c3cc(F)c4c(=O)n(C5CCOCC5)cnc4c3)cc(C#N)c2n1 [Compound 367, 6-[5-fluoro-3-(oxan-4-yl)-4-oxoquinazolin-7-yl]-2-methylimidazo[1,2-a]pyridine-8-carbonitrile] | 100 to 1000 | 100 to 1000 | 100 to 1000 | 100 to 1000 | 100 to 1000
3 | Cc1cn2nc(-c3ccc4c(=O)n([C@H]5CCNC6(CC6)C5)ncc4c3)cc(C)c2n1 [Compound 369, 2-[(7S)-4-azaspiro[2.5]octan-7-yl]-6-{2,8-dimethylimidazo[1,2-b]pyridazin-6-yl}phthalazin-1-one] | 1000 to 10000 | < 100 | < 100 | < 100 | 100 to 1000
4 | Cc1cn2cc(-c3cc(F)c4c(=O)n(C5CCNCC5)ccc4c3)cc(F)c2n1 [Compound 370] | < 100 | < 100 | < 100 | < 100 | < 100
5 | Cc1cn2nc(-c3ccc4c(=O)n([C@H]5CCNC[C@H]5F)cnc4c3)cc(C)c2n1 [Compound 372] | 1000 to 10000 | 100 to 1000 | 100 to 1000 | 100 to 1000 | 100 to 1000
6 | Cc1cc(-c2ccc3c(=O)n(C4CCNC5(COC5)C4)cnc3c2)cc2cn(C)nc12 (stereo not shown) [Compound 375] | 1000 to 10000 | 1000 to 10000 | 1000 to 10000 | 1000 to 10000 | 1000 to 10000
7 | Cc1cc(-c2ccc3c(=O)n([C@@H]4CCNC[C@H]4F)ncc3c2)cc2cn(C)nc12 [Compound 378] | 1000 to 10000 | 1000 to 10000 | 1000 to 10000 | 1000 to 10000 | 1000 to 10000
8 | Cc1cn2nc(-c3ccc4c(=O)n([C@@H]5CCNC[C@H]5F)ncc4c3)cc(C)c2n1 [Compound 379] | 1000 to 10000 | 100 to 1000 | 100 to 1000 | 100 to 1000 | 100 to 1000
9 | Cc1cn2nc(-c3cc(F)c4c(=O)n(C5CCNC6(CC6)C5)ccc4c3)cc(C)c2n1 (stereo not shown) [Compound 380, 6-(2,8-dimethylimidazo[1,2-b]pyridazin-6-yl)-8-fluoro-2-(4-azaspiro[2.5]octan-7-yl)isoquinolin-1(2H)-one] | 100 to 1000 | < 100 | < 100 | < 100 | < 100
10 | Cc1cn2nc(-c3ccc4c(=O)n(C5CCNCC5)cc(C)c4c3)cc(C)c2n1 [Compound 381, 6-{2,8-dimethylimidazo[1,2-b]pyridazin-6-yl}-4-methyl-2-(piperidin-4-yl)isoquinolin-1-one] | 100 to 1000 | 100 to 1000 | < 100 | < 100 | < 100
11 | Cc1cn2cc(-c3cc(F)c4c(=O)n(C5CCNCC5)ccc4c3)cc(C#N)c2n1 [Compound 383, 6-[8-fluoro-1-oxo-2-(piperidin-4-yl)isoquinolin-6-yl]-2-methylimidazo[1,2-a]pyridine-8-carbonitrile] | 100 to 1000 | 1000 to 10000 | 100 to 1000 | 100 to 1000 | 100 to 1000
12 | Cc1cn2nc(-c3ccc4c(=O)n(C5CCNC6(CC6)C5)ccc4c3)cc(C)c2n1 (stereo not shown) [Compound 384] | 100 to 1000 | < 100 | < 100 | < 100 | < 100
13 | Cc1cn2nc(-c3cc(C#N)c4c(=O)n(C5CCNC6(CC6)C5)ccc4c3)cc(C)c2n1 (stereo not shown) [Compound 387] | < 100 | < 100 | < 100 | < 100 | < 100
14 | Cc1cn2nc(-c3cc(Cl)c4c(=O)n(C5CCNCC5)ccc4c3)cc(C)c2n1 [Compound 390, 8-chloro-6-{2,8-dimethylimidazo[1,2-b]pyridazin-6-yl}-2-(piperidin-4-yl)isoquinolin-1-one; trifluoroacetaldehyde] | < 100 | < 100 | < 100 | < 100 | < 100
15 | Cc1cn2nc(-c3cc(O)c4c(=O)n(C5CCNCC5)ccc4c3)cc(C)c2n1 [Compound 391, 6-(2,8-dimethylimidazo[1,2-b]pyridazin-6-yl)-8-hydroxy-2-(piperidin-4-yl)isoquinolin-1(2H)-one] | < 100 | < 100 | < 100 | < 100 | < 100
16 | CC(=O)c1cc(-c2cc(F)c3c(=O)n(C4CCNCC4)ccc3c2)cn2cc(C)nc12 [Compound 393, 6-{8-acetyl-2-methylimidazo[1,2-a]pyridin-6-yl}-8-fluoro-2-(piperidin-4-yl)isoquinolin-1-one 2,2,2-trifluoroacetate] | 100 to 1000 | 1000 to 10000 | 100 to 1000 | 100 to 1000 | 100 to 1000
17 | Cn1cc2cc(-c3cc(F)c4c(=O)n(C5CCNCC5)ccc4c3)cc(C#N)c2n1 [Compound 394, 5-(8-fluoro-1-oxo-2-(piperidin-4-yl)-1,2-dihydroisoquinolin-6-yl)-2-methyl-2H-indazole-7-carbonitrile] | < 100 | < 100 | < 100 | < 100 | < 100
18 | COc1cc(-c2cc(C)c3nc(C)cn3n2)cc2ccn(C3CCNCC3)c(=O)c12 [Compound 399, 6-{2,8-dimethylimidazo[1,2-b]pyridazin-6-yl}-8-methoxy-2-(piperidin-4-yl)isoquinolin-1-one] | 100 to 1000 | 100 to 1000 | 100 to 1000 | 100 to 1000 | 100 to 1000
19 | Cc1cn2nc(-c3cc(F)c4c(=O)n(C5CCN(C)CC5)ccc4c3)cc(C)c2n1 [Compound 400, 6-(2,8-dimethylimidazo[1,2-b]pyridazin-6-yl)-8-fluoro-2-(1-methylpiperidin-4-yl)isoquinolin-1(2H)-one] | 100 to 1000 | < 100 | < 100 | < 100 | < 100
20 | CCN1CCC(n2ccc3cc(-c4cc(C)c5nc(C)cn5n4)ccc3c2=O)CC1 [Compound 402, 6-{2,8-dimethylimidazo[1,2-b]pyridazin-6-yl}-2-(1-ethylpiperidin-4-yl)isoquinolin-1-one] | 100 to 1000 | 100 to 1000 | 100 to 1000 | 100 to 1000 | < 100
21 | Cc1cn2cc(-c3ccc4c(=O)n([C@H]5CCCNC5)ccc4c3)cc(F)c2n1 [Compound 404, 6-{8-fluoro-2-methylimidazo[1,2-a]pyridin-6-yl}-2-[(3S)-piperidin-3-yl]isoquinolin-1-one] | 1000 to 10000 | 1000 to 10000 | 1000 to 10000 | 1000 to 10000 | 1000 to 10000
22 | Cc1cn2cc(-c3cc(S(C)(=O)=O)c4c(=O)n(C5CCNCC5)ccc4c3)cc(F)c2n1 [Compound 409, 6-(8-fluoro-2-methylimidazo[1,2-a]pyridin-6-yl)-8-(methylsulfonyl)-2-(piperidin-4-yl)isoquinolin-1(2H)-one] | > 10000 | > 10000 | > 10000 | > 10000 | > 10000
23 | Cn1cc2cc(-c3cc(F)c4c(=O)n(C5CCNC6(CC6)C5)ccc4c3)cc(F)c2n1 (stereo not shown) [Compound 412] | < 100 | < 100 | < 100 | < 100 | < 100
